Source: patent US6676932B2, “Ultraviolet absorbent, photostabilizer, ultraviolet ray-absorbing composition, photostabilized composition and external preparation for skin” (Shiseido Co., Ltd., priority 2001, dated 2004)

Legend:
[1] = system: sunburn; experiment: Ultraviolet preventive effect, application test on beach in summer (Test Example 2); assay type: in vivo, human
Method: An application test was carried out on beach in summer. Equal volumes of samples were individually coated on back halves of subjects. After exposure to direct daylight, the degree of sunburn was assessed according to the following assessment standards. Each group consists of 10 subjects.
Prominently effective: none or almost no sunburn symptom was observed.
Effective: light sunburn symptom was observed.
Ineffective: strong sunburn symptom was observed.
⊚: prominently effective or effective for 80% or more of the subjects.
◯: prominently effective or effective for 50% or more to less than 80% of the subjects.
Δ: prominently effective or effective for 30% or more to less than 50% of the subjects.
x: prominently effective or effective for less than 30% of the subjects.
The aqueous phase and the alcohol phase were separately prepared and then mixed together.
Propylene glycol was added to and dissolved in ion exchange water. The resulting solution was retained at 70° C. under heating (aqueous phase). Other ingredients were mixed […]. The resulting mixture was melted under heating and retained at 70° C. (oil phase). The oil phase was added to the aqueous phase, for preliminary emulsification with a homomixer to homogeneity. Under thorough mixing, subsequently, the mixture was cooled to 30° C.

[2] = system: skin; experiment: Test of skin irritation: continuous application test (Test Example 3 i); assay type: in vivo, human; conditions: 10 wt % ultraviolet absorbent, twice daily for 4 weeks
Method: (§1) The same samples as in the Test Example 2 were used (at a 10 wt % amount of an ultraviolet absorbent).
Continuous application test was carried out for 20 healthy subjects per one group. An appropriate amount of each of the samples was coated twice daily for 4 weeks. The effects were assessed according to the following assessment standards.
Mean score was calculated for the determination of the effect on the basis of the following standards.
(§2) ◯: mean score of more than 0 to less than 1.
(§3) Δ: mean score of 1 or more to less than 2.
(§4) x: mean score of 2 or more.

[3] = system: skin; experiment: Test of skin irritation: 24-hour occlusion patch test (Test Example 3 ii); assay type: in vivo, human; conditions: 10 wt % ultraviolet absorbent
Method: as §1
20 Healthy male and female volunteers per one group were carried out in a 24-hour occlusion patch test, using a fin chamber on forearm curves. Assessment was done on the basis of the following assessment standards.
Mean score was determined for the assessment on the basis of the following standards.
as §2, §3, §4

[4] = Photostability test of aqueous solutions under daylight (Test Example 4); assay type: physicochemical; conditions: aqueous solution, daylight for 2 weeks (80 MJ)
Method: Aqueous solutions of the pyridazine derivative of the invention were exposed to daylight for 2 weeks (at a daylight exposure of 80 MJ). Subsequently, the remaining ratio and the change of the appearance were examined to measure the ultraviolet spectra with a spectrophotometer (solvent: water; concentration of 10 ppm and optical path length of 1 cm). The area under ultraviolet spectra curve from 290 nm to 400 nm were determined by integration to compare the area with the area before daylight exposure.
The remaining ratio and the change of the area under the ultraviolet spectrum were determined on the basis of the following standards.
⊚: 95% or more of those before daylight exposure.
◯: 90% or more to less than 95% of those before daylight exposure.
Δ: 70% or more to less than 90% of those before daylight exposure.
x: less than 70% of those before daylight exposure.

[5] = Stability test in combination with inorganic powder-based ultraviolet shielding agent, sunscreen cream (Test Example 5); assay type: physicochemical; conditions: sunscreen cream with inorganic powders; ultraviolet absorbent 10.0 wt %; 50° C. for 2 months; visual observation
Method: A sunscreen cream of the following formulation was prepared and stored at 50° C. for 2 months. Under visual observation of the color change, the stability of the inventive pyridazine derivative in combination with inorganic powder-based ultraviolet screening agents commonly in blend as external preparations for skin for the purpose of ultraviolet prevention was examined.
After the ingredient 2 was added to the ingredient 1 to swell the ingredient 2, the ingredients 3 to 11 were mixed with the resulting mixture under heating, for sufficient dispersion and dissolution. While keeping the dispersion at 70° C., a solution of the mixture of the ingredients 12 to 15 was gradually added to the dispersion under thorough emulsification with a homomixer. The resulting mixture was cooled to 30° C. under sufficient stirring to prepare sunscreen creams.

[6] = Dye stabilization effect under daylight exposure (Test Examples 6-91); assay type: physicochemical; parameters: key to Δ E: color difference ΔE in Lab vs. color before daylight exposure; key to Appearance (visual determination): ◯: no change; Δ: almost no change; x: change; conditions: photostabilizer 0.05 wt %, daylight exposure (80 MJ)
Summary of the method: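 Test samples exposed to daylight to 80 MJ; appearance judged visually. Colour measured by spectrophotometer in Lab coordinates, with ΔE calculated relative to pre-exposure values (L1, a1, b1).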

[7] = Stabilization effect on perfume under daylight exposure (Test Examples 92 to 181); assay type: physicochemical; parameters: key: ◯: no change; Δ: almost no change; x: change; conditions: daylight exposure (80 MJ)
Method: Each test sample was prepared for observation of the change of the odor of the test sample (determined by perfume coordinator) before and after daylight exposure (80 MJ).

[8] = Drug stabilization effect under daylight exposure (Test Examples 182 to 211); assay type: physicochemical; parameters: key to Appearance (visual determination): ◯: no change; Δ: almost no change; x: change; conditions: drug salicylic acid 0.1 wt %, photostabilizer 0.05 wt %, daylight exposure (80 MJ)
Method: For observation of the change of the appearance of each test sample (determination based on visual observation) and the measurement of the remaining ratio by liquid chromatography before and after daylight exposure (80 MJ), the test sample was prepared.

[9] = dye Blue 1 (Brilliant Blue FCF) 0.0001 wt %
[10] = dye Green 3 (Fast Green FCF) 0.001 wt %
[11] = dye Red 227 (Acid Fuchsine D) 0.0001 wt %
[12] = dye Yellow 5 (Sunset Yellow FCF) 0.001 wt %
[13] = dyes Red 227 (Acid Fuchsine D) 0.0001 + Yellow 5 (Sunset Yellow FCF) 0.0001 wt %

## Oc1nnccc1N1CCCCC1 [3-Hydroxy-4-piperidinopyridazine, 3-hydroxy-4-piperidinopyridazine]
[1]; cream, blend amount 0.0005 wt %
  Ultraviolet prevention effect: Δ (prominently effective or effective for 30% or more to less than 50% of the subjects)
[1]; cream, blend amount 0.001 wt %
  Ultraviolet prevention effect: ◯ (prominently effective or effective for 50% or more to less than 80% of the subjects)
[1]; cream, blend amount 0.01 wt %
  Ultraviolet prevention effect: ⊚ (prominently effective or effective for 80% or more of the subjects)
[1]; cream, blend amount 1 wt %
  Ultraviolet prevention effect: ⊚ (prominently effective or effective for 80% or more of the subjects)
[1]; cream, blend amount 5 wt %
  Ultraviolet prevention effect: ⊚ (prominently effective or effective for 80% or more of the subjects)
[1]; cream, blend amount 10 wt %
  Ultraviolet prevention effect: ⊚ (prominently effective or effective for 80% or more of the subjects)
[1]; cream, blend amount 20 wt %
  Ultraviolet prevention effect: ⊚ (prominently effective or effective for 80% or more of the subjects)
[1]; lotion, blend amount 0.0005 wt %
  Ultraviolet prevention effect: Δ (prominently effective or effective for 30% or more to less than 50% of the subjects)
[1]; lotion, blend amount 0.001 wt %
  Ultraviolet prevention effect: ◯ (prominently effective or effective for 50% or more to less than 80% of the subjects)
[1]; lotion, blend amount 0.01 wt %
  Ultraviolet prevention effect: ⊚ (prominently effective or effective for 80% or more of the subjects)
[1]; lotion, blend amount 1 wt %
  Ultraviolet prevention effect: ⊚ (prominently effective or effective for 80% or more of the subjects)
[1]; lotion, blend amount 5 wt %
  Ultraviolet prevention effect: ⊚ (prominently effective or effective for 80% or more of the subjects)
[1]; lotion, blend amount 10 wt %
  Ultraviolet prevention effect: ⊚ (prominently effective or effective for 80% or more of the subjects)
[1]; lotion, blend amount 20 wt %
  Ultraviolet prevention effect: ⊚ (prominently effective or effective for 80% or more of the subjects)
[2]; cream
  Determination (skin reaction, continuous application test): ⊚ (mean score of 0)
[2]; lotion
  Determination (skin reaction, continuous application test): ⊚ (mean score of 0)
[3]; cream
  Determination (skin reaction, patch test): ⊚ (mean score of 0)
[3]; lotion
  Determination (skin reaction, patch test): ⊚ (mean score of 0)
[4]
  Remaining ratio: ⊚ (95% or more of those before daylight exposure)
[4]; 290 nm to 400 nm
  Change of area under ultraviolet spectrum: ⊚ (95% or more of those before daylight exposure)
[5]
  Color change: no
[6]; [9]
  Appearance (visual determination): ◯
  Δ E: 1.24
[6]; [10]
  Appearance (visual determination): ◯
  Δ E: 0.46
[6]; [11]
  Appearance (visual determination): ◯
  Δ E: 0.54
[6]; [12]
  Appearance (visual determination): ◯
  Δ E: 0.58
[6]; [13]
  Appearance (visual determination): ◯
  Δ E: 0.65
[7]; base perfume Rose, photostabilizer 0.05 wt %
  odor determination: ◯
[7]; base perfume Woody, photostabilizer 0.1 wt %
  odor determination: ◯
[7]; natural perfume Rose oil, photostabilizer 0.05 wt %
  odor determination: ◯
[8]
  Appearance (visual determination): ◯
[8]; liquid chromatography
  Remaining ratio (%): 98.4%
